Patent EP3511005A1, “COMPOUNDS FOR USE IN TREATING HUTCHINSON-GILFORD PROGERIA SYNDROME” (Technische Universität München, priority 2018, dated 2019)
Where “and” joins values, the source holds several entries; their conditions need not be identical. Equal entries are not always repeated.

Legend:
[1] = system: mouse fibroblasts from a progerin mouse model; experiment: Western blot analysis of progerin levels in mouse fibroblasts from progerin mouse model; format: cell-based; conditions: mouse progerin fibroblasts (LMNA G609G/G609G), 3 µM
Protocol: (§1) A similar quantitative Western Blot analysis was carried out in wild-type mouse fibroblasts compared to fibroblasts obtained from the progerin mouse model (see Figure 17).
Subsequently, the cell suspension was centrifuged for 5 min at 1200 rpm, the supernatant was aspirated, and the cells were washed with 4.5 ml PBS (Sigma). These steps were performed thrice in order to assure that all culture media is removed. Then, the cells were transferred to Eppendorf tubes with 1 ml PBS (Sigma) and the tubes were centrifuged for 5 min at 1200 rpm. After fully aspirating PBS, the cell pellets were obtained. Following the generation of cell pellets, the next action was the preparation of the gel electrophoresis loading samples. The first step was the addition of 100 µl per 10^7 cells of Laemmli Buffer-inhibitor mix to each Eppendorf tube to lyse the fibroblasts and denature the proteins of the lysate. […]
(§2) The total protein concentration of each gel electrophoresis loading sample was determined by using a series of dilutions of known concentrations of bovine serum albumin (BSA) to obtain a standard curve. […] The total protein concentration of each gel electrophoresis loading sample was calculated based on this standard curve. […]

HGPS fibroblasts [2] = experiment: Intracellular ATP measurement in HGPS fibroblasts; format: cell-based, human; conditions: 0.25-1 µM, 4 or 9 days
Protocol: This assay relies in the properties of a proprietary thermostable luciferase which generates a stable luminescent signal that is proportional to the amount of ATP in the cells by catalyzing the mono-oxygenation of luciferin in the presence of Mg^2+, ATP and molecular oxygen.
This reagent is obtained by transferring 10 ml of CellTiter-Glo® Buffer into an amber bottle containing CellTiter-Glo® Substrate and then mixing it gently by vortexing. The plate was then mixed for 2 min in an orbital shaker to induce cell lysis and following that, it was incubated at room temperature for 10 min to stabilize the luminescent signal. Finally, luminescence was recorded in a FLUOstar Omega Microplate Reader (Omega BMG Labtech). Considering that the ATP level in mock-treated control fibroblasts is 100%, the ATP levels relative to mock-treated control fibroblasts were calculated for each condition.
Culture media without cells was used as a blank negative control to assure there is no interference with the luciferase reaction.

[3] = system: control and progerin mouse cells; experiment: Cell growth (proliferation) of mouse fibroblasts; format: cell-based; conditions: 3 µM
Protocol: First, control and HGPS fibroblasts were cultured at 37 °C and 5% CO2 in culture media without drug. […] Then, each type of fibroblasts was seeded in triplicate with 150.000 cells/dish at the four different conditions. After 4 days and 9 days, the number of cells harvested in each condition was counted, also using a CASY® Cell Counter (Roche). The cumulative population doubling was determined using equation 5. Cumulative Population Doubling = 3,32 × log((cells harvested)/(cells seeded)) [formula]

HGPS fibroblasts [4] = experiment: Western blot analysis of progerin and lamin A/C levels in HGPS fibroblasts; format: cell-based, human; conditions: HGPS cells
Protocol: Primary dermal fibroblasts from subjects with HGPS were obtained from the Progeria Research Foundation. Two different fibroblasts derived from HGPS patients carrying the LMNA mutation G608G were used: HGADFN003 (person) and HGADFN127 (person). Control dermal fibroblasts were obtained from the Coriell Institute for Medical Research (Camden, NJ). The following cell lines were used: GMO1651C and GMO3349C. All cells were maintained at -80 °C in 90% fetal bovine serum (FBS) and 10% dimethyl sulfoxide (DMSO). The Institutional Review Board of the Technische Universität München (TUM) approved the use of human cells established from skin biopsies from patients with HGPS and unaffected individuals in this study.
Control and HGPS fibroblasts were cultured at 37 °C and 5% CO2 in Dulbecco's Modified Eagle Media (DMEM) (Gibco by life technologies) containing 15% FBS (Gibco by life technologies), 1% L-glutamine (Gibco by life technologies), 1% penicillin/streptomycin (Gibco by life technologies), and 2 ml of gentamycin (Gibco by life technologies). Mock-treated and baricitinib-treated fibroblasts were cultured in parallel. […] Three times a week the cells were re-fed with new culture media.
as §1
Subsequently, the cell suspension was centrifuged for 5 min at 1200 rpm, the supernatant was aspirated, and the cells were washed with 4.5 ml PBS (Sigma). These steps were performed thrice in order to assure that all culture media is removed. Then, the cells were transferred to Eppendorf tubes with 1 ml PBS (Sigma) and the tubes were centrifuged for 5 min at 1200 rpm. […]
as §2

HGPS fibroblasts [5] = experiment: Intracellular ROS measurement in HGPS fibroblasts; format: cell-based, human; conditions: 0.25-1 µM, 4 or 9 days
From the text: This assay uses 2',7'-dichlorofluorescein diacetate (DCFDA), a cell permeant reagent that after entering the cell is deacetylated by cellular esterases to a non-fluorescent compound that is later oxidized by ROS into 2',7'-dichlorofluorescein (DCF). DCF is highly fluorescent and can be detected by fluorescence spectroscopy.
First, control and HGPS fibroblasts were harvested in the above mentioned conditions and, following trypsinization, the number of cells was counted with a CASY® Cell Counter (Roche). The fibroblasts from each condition were seeded in triplicate in a 96 well plate with 32.000 cells/well in 100 µl of culture media with the appropriate drug concentration, and the plate was incubated at 37 °C for 8 h. After the incubation, the culture media was aspirated, 100 µl of 1 x Buffer were added to each well, and the plate was centrifuged at 1200 rpm for 5 min. […] Following the addition of 1x Buffer, fluorescence was measured immediately in a FLUOstar Omega Microplate Reader (Omega BMG Labtech) using an excitation wavelength of 485 nm and an emission wavelength of 535 nm. Considering that the ROS level in mock-treated control fibroblasts is 100%, the ROS levels relative to mock-treated control fibroblasts were calculated for each condition. […]

HGPS fibroblasts [6] = experiment: Autophagy measurement in HGPS fibroblasts; format: cell-based, human; conditions: 0.25-1 µM, 4 or 9 days
Protocol: This assay uses monodansylcadaverine (MDC), a fluorescent compound that is incorporated into multilamellar bodies by both an ion trapping mechanism and the interaction with membrane lipids, as a probe for the detection of autophagic vacuoles in cells.
The staining solution was prepared by diluting Cell-Based Monodansylcadaverine 1:1000 in Cell Based Assay Buffer. The assay buffer was prepared by dissolving a Cell-Based Assay Buffer Tablet in 100 ml of distilled water. The plate was then incubated at 37 °C for 10 min and centrifuged for 5 min at 1200 rpm. Next, the supernatant was removed, 100 µl of Cell-Based Assay Buffer was added to each well and the plate was again centrifuged in the same conditions. […] Considering that the autophagy level in mock-treated control fibroblasts is 100%, the level of autophagy relative to mock-treated control fibroblasts for each condition was determined (see Figure 5).
Cell-Based Tamoxifen (100 mM), a known inducer of autophagy, was used as a positive control. This compound was initially added to a control culture diluted 1:50.000 into the culture media. Cell Based Assay Buffer was used as a negative blank control.

HGPS fibroblasts [7] = experiment: 20S proteasome activity measurement in HGPS fibroblasts; format: cell-based, human; conditions: 0.25-1 µM, 4 or 9 days
Protocol: This assay uses a specific 20S substrate (SUC-LLVY-AMC) which, upon cleavage by the active enzyme, generates a fluorescent product that can be detected.
Next, the plate was again centrifuged in the same conditions, the supernatant was aspirated, and 100 µl of 20S Proteasome Lysis Buffer was added to each well. Then, the plate was incubated with gentle shaking for 30 min at room temperature to allow cell lysis and it was centrifuged at 1300 rpm for 7 min. Following centrifugation, 90 µl of the supernatant from each well was transferred to a new empty well together with 10 µl of substrate solution. The substrate solution was prepared by adding 25 µl of 20S Proteasome Substrate (SUC-LLVY-AMC) to 1 ml of 20S Proteasome Assay Buffer. […] Considering that the proteasomal activity in mock-treated control fibroblasts is 100%, the proteasomal activity relative to mock-treated control fibroblasts was calculated for each condition.
A Jurkat cell lysate supernatant which contains a high level of 20S activity was used as positive control (20S Proteasome Positive Control) and 20S Proteasome Assay Buffer was used as negative blank control.

[8] = system: mouse fibroblasts from a progerin mouse model; experiment: Autophagy measurement in mouse fibroblasts (monodansylcadaverine staining); conditions: 3 µM
Protocol: First, control and HGPS fibroblasts were harvested in the above mentioned conditions and, following trypsinization, the number of cells was counted with a CASY® Cell Counter (Roche). Afterwards, fibroblasts from each condition were seeded in triplicate in a 96 well plate with 32.000 cells/well in 100 µl of culture media with the appropriate drug concentration, and the plate was incubated at 37 °C for 8 h. After centrifuging the 96 well plate at 1200 rpm for 5 min, the culture media was aspirated from each well and 100 µl of staining solution was added. The staining solution was prepared by diluting Cell-Based Monodansylcadaverine 1:1000 in Cell Based Assay Buffer. The assay buffer was prepared by dissolving a Cell-Based Assay Buffer Tablet in 100 ml of distilled water. […] Lastly, after removing the supernatant, 100 µl of Cell-Based Assay Buffer was added to each well and the autophagic vacuole staining intensity was immediately detected in a FLUOstar Omega Microplate Reader (Omega BMG Labtech) using an excitation wavelength of 355 nm and an emission wavelength of 520 nm.

CCS(=O)(=O)N1CC(CC#N)(n2cc(-c3ncnc4[nH]ccc34)cn2)C1 [baricitinib]
levels of progerin decrease ([1]; day 4): 18% | levels of progerin decrease ([1]; day 9): 35% and 35.6% | ATP levels (HGPS fibroblasts [2]): increase | cell growth [3]: ameliorate cell growth | reduction of levels of progerin (HGPS fibroblasts [4]; 4 days treatment with 1 µM, anti-progerin and anti-lamin A/C antibodies): 15% | progerin levels decreased (HGPS fibroblasts [4]; 9 days treatment with 1 µM): 33% | lamin A and lamin C levels (HGPS fibroblasts [4]; long-term treatment): remained constant | ROS levels (HGPS fibroblasts [5]): decrease | autophagy activity (HGPS fibroblasts [6]): increase | proteasome activity (HGPS fibroblasts [7]): increase | levels of autophagy ([8]; both control and progerin mouse fibroblasts): increases | levels of autophagy increased ([8]; progerin mouse fibroblast relative to mock-treated control cells): 39.9%
